The text below walks through data of US20210002242A1, “DIACYLGLYCEROL LACTONE COMPOUND, PREPARATION METHOD THEREFOR, AND IMMUNOSTIMULATOR CONTAINING SAME AS ACTIVE INGREDIENT” (priority 2018, published 2021).

The test system of one series is CXCL8 (IL-8). Briefly: Increase in expression of CXCL8 (IL-8) in THP-1 cells, human IL-8 ELISA of culture supernatant. The settings on record: for CXCL8 [IL-8] concentration (pg/μl, average ± deviation): THP-1 cells, 24 hours, supernatant. It counts as cell-based. The protocol:
In RPMI (Hyclone, Thermo Scientific) medium to which 10% Fetal Bovine Serum was added, THP-1 cells, a human macrophage family, were suspended at a concentration of 1×10^5 cells/ml, and culture was conducted in a 5% CO2 humidified incubator at 37° C. The cultured THP-1 cells were inoculated into a 12 well plate by 1×10^6 cells/ml and stabilized for 30 minutes. Then, the culture solution was treated with a diacylglycerol lactone compound of the type shown in Table 2 below for 1 hour and then was treated with Gemcitabine (2 μg/ml) of a cell stimulator, and subsequent further incubation was conducted for 24 hours. Thereafter 1.5 ml of the culture supernatant was collected for each well and centrifuged (at 3000 rpm, 5 minutes) to recover the supernatant. The CXCL8 (IL-8) level in the recovered supernatant was measured according to the manual provided by the human IL-8 ELISA set (BD Biosciences). The day before ELISA was carried out, the IL-8 capture antibody was diluted in phosphate buffered saline, coated on a microwell, and then stored at 4° C. overnight. Each well was washed three times with a washing buffer solution and then blocked with 2% Bovine Serum Albumin (BSA) for 1 hour at room temperature. After washing with washing buffer solution three times, 100 μl of sample was dispensed into each well and left at room temperature for 2 hours. Detection antibody which was washed 3 times with washing buffer and diluted was dispensed into each well and allowed to react at room temperature for 1 hour and left at room temperature for 1 hour. Thereafter, the secondary HRP conjugated antibody was reacted at room temperature for 30 minutes, washed three times with a washing buffer, and treated with 50 μl of stop solution for each well, and then the optical density was measured at 450 nm with an ELISA microplate leader.
On the technique in general: An ELISA detects its analyte on a solid surface through an enzyme-linked reagent.

A further series has as its system RAW264.7 cells. Kind of series: Cytotoxicity assessment, cell viability by EZ-Cytox (WST), OD 450 nm. It counts as cell-based, mouse. The conditions noted are these: 100 μg/ml, 24 hours. As for the experimental part:
In DMEM (Dulbecco Modified Eagle Medium) medium with 10% Fetal Bovine Serum added, RAW264.7 cells, which are cells of the mouse macrophage family, were suspended at a concentration of 1×10^5 cells/ml, and then were inoculated into 96 well plates by 100 μl, and culture was conducted for 15 hours. […] According to the EZ-CYTOX (Daeillab_EZ-1000) manual for measuring the amount of living cells using WST, 10 μl of EZ-Cytox was added to each well and reacted for up to 2 hours from 30 minutes, and then an optical density (OD) at 450 nm was measured.

Setting [1] is: compound 100 μg/ml for 1 hour, then Gemcitabine 2 μg/ml.

On to `CCCCCC=CCC=CCCCCCCCC(=O)OCC1(COC(=O)C(C)CC)CCC(=O)O1` (mixture of isomers) [EC-A126], for which, in the series with CXCL8 (IL-8) (setting [1]), the “CXCL8 [IL-8] concentration (pg/μl, average ± deviation)” value (shortened to “CXCL8 … (pg/μl, average ± deviation)”) came to 352.96 ± 0.45 pg/µL.

As to `CCCCC/C=C\C/C=C\CCCCCCCC(=O)OCC1(COC(=O)CC)CCC(=O)O1` (racemic) [EC-A115], the “CXCL8 … (pg/μl, average ± deviation)” value with CXCL8 (IL-8) (setting [1]) is 1202.80 ± 38.09 pg/µL.

For `CCCCC/C=C\C/C=C\CCCCCCCC(=O)OCC1(COC(=O)CCC)CCC(=O)O1` (racemic) [EC-A116], the RAW264.7 cell viability with RAW264.7 cells was determined as 141.09 ± 5.01%. The “CXCL8 … (pg/μl, average ± deviation)” value with CXCL8 (IL-8) (setting [1]) is 865.54 ± 12.31 pg/µL.

In the case of `CCCCC/C=C\C/C=C\CCCCCCCC(=O)OCC1(COC(=O)CCCC)CCC(=O)O1` (racemic) [EC-A117], the “CXCL8 … (pg/μl, average ± deviation)” value in the series on CXCL8 (IL-8) (setting [1]) was determined as 568.12 ± 8.21 pg/µL.

Turning to `CCCCC/C=C\C/C=C\CCCCCCCC(=O)OCC1(COC(=O)CCCCC)CCC(=O)O1` (racemic) [EC-A118], in the series on CXCL8 (IL-8) (setting [1]), the “CXCL8 … (pg/μl, average ± deviation)” value stood at 622.16 ± 6.61 pg/µL.

For `CCCCC/C=C\C/C=C\CCCCCCCC(=O)OCC1(COC(=O)CCCCCC)CCC(=O)O1` (racemic) [EC-A119], the “CXCL8 … (pg/μl, average ± deviation)” value with CXCL8 (IL-8) (setting [1]) was 343.61 ± 7.75 pg/µL.

Take `CCCCC/C=C\C/C=C\CCCCCCCC(=O)OCC1(COC(=O)CCCCCCCC)CCC(=O)O1` (racemic) [EC-A120]: in the series on CXCL8 (IL-8) (setting [1]), the “CXCL8 … (pg/μl, average ± deviation)” value came out at 237.80 ± 3.64 pg/µL.

As to `CCCCC/C=C\C/C=C\CCCCCCCC(=O)OCC1(COC(=O)CCCCCCCCCCC)CCC(=O)O1` (racemic) [EC-A121], in the series on RAW264.7 cells, the RAW264.7 cell viability was found to be 114.25 ± 33.11%. Further, the “CXCL8 … (pg/μl, average ± deviation)” value in the series on CXCL8 (IL-8) (setting [1]) turned out to be 215.38 ± 4.33 pg/µL.

As for `CCCCC/C=C\C/C=C\CCCCCCCC(=O)OCC1(COC(=O)CCCCCCCCCCCCC)CCC(=O)O1` (racemic) [EC-A122], the RAW264.7 cell viability in the series on RAW264.7 cells is reported as 105.48 ± 3.92%. In addition, in the series with CXCL8 (IL-8) (setting [1]), the “CXCL8 … (pg/μl, average ± deviation)” value was 190.06 ± 4.56 pg/µL.

For the compound `CCCCC/C=C\C/C=C\CCCCCCCC(=O)OCC1(COC(=O)C(C)C)CCC(=O)O1` (racemic) [EC-A124], the “CXCL8 … (pg/μl, average ± deviation)” value with CXCL8 (IL-8) (setting [1]) is 663.45 ± 2.96 pg/µL.

With `CCCCC/C=C\C/C=C\CCCCCCCC(=O)OCC1(COC(=O)C(C)(C)C)CCC(=O)O1` (racemic) [EC-A125], the “CXCL8 … (pg/μl, average ± deviation)” value in the series on CXCL8 (IL-8) (setting [1]) was found to be 252 ± 11.86 pg/µL.

`CCCCC/C=C\C/C=C\CCCCCCCC(=O)OCC1(COC(=O)C2CC2)CCC(=O)O1` (racemic) [EC-A127]: the “CXCL8 … (pg/μl, average ± deviation)” value with CXCL8 (IL-8) (setting [1]) came to 532.32 ± 1.82 pg/µL.

For `CCCCC/C=C\C/C=C\CCCCCCCC(=O)OCC1(COC(=O)C2CCCCC2)CCC(=O)O1` (racemic) [EC-A128], the “CXCL8 … (pg/μl, average ± deviation)” value in the series on CXCL8 (IL-8) (setting [1]) turned out to be 351.03 ± 7.75 pg/µL.

Take `CCCCCCCCCCCCCCCC(=O)OCC1(COC(=O)C(C)C)CCC(=O)O1` (racemic) [EC-A131]: the RAW264.7 cell viability with RAW264.7 cells worked out at 100.25 ± 14.78%. For the same compound, the “CXCL8 … (pg/μl, average ± deviation)” value with CXCL8 (IL-8) (setting [1]) amounted to 1256.19 ± 15.96 pg/µL.

For `CCCCCCCCCCCCCCCC(=O)OCC1(COC(=O)C(C)(C)C)CCC(=O)O1` (stereo not shown) [EC-A132], in the series with RAW264.7 cells, the RAW264.7 cell viability came out at 96.58 ± 5.01%. Also, in the series on CXCL8 (IL-8) (setting [1]), the “CXCL8 … (pg/μl, average ± deviation)” value was determined as 921.35 ± 52.46 pg/µL.

As to `CCCCCCCCCCCCCCCC(=O)OCC1(COC(=O)C(C)CC)CCC(=O)O1` (stereo not shown) [EC-A133], the RAW264.7 cell viability with RAW264.7 cells was determined as 114.45 ± 3.46%. The “CXCL8 … (pg/μl, average ± deviation)” value in the series with CXCL8 (IL-8) (setting [1]) was determined as 1176.67 ± 29.42 pg/µL.

As for `CCCCCCCCCCCCCCCC(=O)OCC1(COC(=O)C2CC2)CCC(=O)O1` (stereo not shown) [EC-A134], in the series on RAW264.7 cells, the RAW264.7 cell viability amounted to 110.06 ± 4.19%. In addition, the “CXCL8 … (pg/μl, average ± deviation)” value in the series on CXCL8 (IL-8) (setting [1]) came to 1266.03 ± 2.05 pg/µL.

On to `CCCCCCCCCCCCCCCC(=O)OCC1(COC(=O)C2CCCCC2)CCC(=O)O1` (stereo not shown) [EC-A135], for which, in the series on CXCL8 (IL-8) (setting [1]), the “CXCL8 … (pg/μl, average ± deviation)” value turned out to be 310.87 ± 14.37 pg/µL.

Turning to `CCCCCCCCCCCCCCCC(=O)OCC1(COC(=O)CCCCCCCCCCC)CCC(=O)O1` (stereo not shown) [EC-A136], the RAW264.7 cell viability in the series with RAW264.7 cells is 95.54 ± 3.01%. The “CXCL8 … (pg/μl, average ± deviation)” value in the series with CXCL8 (IL-8) (setting [1]) is 138.93 ± 2.96 pg/µL.

`CCCCCCCCCCCCCCCC(=O)OCC1(COC(=O)CCCCCCCCCCCCC)CCC(=O)O1` (stereo not shown) [EC-A137]: the RAW264.7 cell viability with RAW264.7 cells was 93.87 ± 8.85%. The “CXCL8 … (pg/μl, average ± deviation)” value in the series with CXCL8 (IL-8) (setting [1]) stood at 133.12 ± 8.43 pg/µL.

For `Nc1ccn([C@@H]2O[C@H](CO)[C@@H](O)C2(F)F)c(=O)n1` [Gemcitabine, reference compound], the “secretion of CXCL8 (IL-8) chemokine, increase compared to the negative control group” value with CXCL8 (IL-8) (THP-1 cells treated with Gemcitabine) is recorded as “about five”. In addition, the “CXCL8 … (pg/μl, average ± deviation)” value in the series on CXCL8 (IL-8) (Gemcitabine 2 μg/ml alone) worked out at 101.83 ± 1.59 pg/µL.
